Results reported in article PMC6255753, “Investigation of the phosphorylation of Bacillus subtilis LTA synthases by the serine/threonine kinase PrkC” (Scientific Reports, 2018).

Legend:
Assay in all cases: thermal shift titration (SYPRO Orange), Hill fit
Type in all cases: binding
Details in all cases: read-out: Apparent KD
[1] = target: T1, eYfnI (YfnI) (Bacillus subtilis, UniProt Q797B3, T297D)
T1 construct: gene ltaS1; extracellular catalytic domain (borders not given), N-terminal 6His tag removed by AcTEV; E. coli Rosetta; pProEX-eYfnI
T1 sequence (Q797B3 215-639 T297D): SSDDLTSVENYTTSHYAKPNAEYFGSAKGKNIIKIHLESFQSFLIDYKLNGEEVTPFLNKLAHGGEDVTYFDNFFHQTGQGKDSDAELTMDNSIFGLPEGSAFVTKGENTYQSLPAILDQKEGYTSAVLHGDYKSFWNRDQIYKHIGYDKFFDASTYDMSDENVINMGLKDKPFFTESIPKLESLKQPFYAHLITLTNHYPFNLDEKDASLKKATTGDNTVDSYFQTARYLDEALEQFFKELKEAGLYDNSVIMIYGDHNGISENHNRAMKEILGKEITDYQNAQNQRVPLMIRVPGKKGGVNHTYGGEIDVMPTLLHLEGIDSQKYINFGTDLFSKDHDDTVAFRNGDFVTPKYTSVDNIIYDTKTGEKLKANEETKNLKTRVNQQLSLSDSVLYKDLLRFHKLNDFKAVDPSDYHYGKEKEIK
Source text: (§1) thermal shift titration (SYPRO Orange), Hill fit on eYfnI (YfnI)

[2] = target: T2, eYfnI (YfnI) (Bacillus subtilis, UniProt Q797B3, T297A)
T2 construct: gene ltaS1; extracellular catalytic domain (borders not given), N-terminal 6His tag removed by AcTEV; E. coli Rosetta; pProEX-eYfnI
T2 sequence (Q797B3 215-639 T297A): as the sequence (Q797B3 215-639 T297D) above, with D83A counted along it
Source text: as §1

[3] = target: T3, eYfnI (YfnI) (Bacillus subtilis, UniProt Q797B3)
T3 construct: gene ltaS1; extracellular catalytic domain (borders not given), N-terminal 6His tag removed by AcTEV; E. coli Rosetta; pProEX-eYfnI
T3 sequence (Q797B3 215-639): as the sequence (Q797B3 215-639 T297D) above, with D83T counted along it
Source text: as §1

## O=P(O)(O)OCC(O)CO (stereo not drawn) [GroP]
[1]
  Kd: 5.4 mM
[2]
  Kd: 8 mM
[3]
  Kd: 2.9 mM
